Test results taken from PubChem BioAssay (NCI).
Several values for one entry are separate records, joined by “and”; a condition that tells them apart may be missing. Equal values may be shown once.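 Following 48 hours of exposure in 96-well plates, responses at five concentrations were used to interpolate endpoints linearly. The concentration for 50% growth inhibition is given as GI50. TGI: concentration producing complete growth inhibition.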 Where a SMILES comes first, the peptide text is derived from it. [ ]: non-standard residue; d: D form. 2Nal = N[CH](Cc1ccc2ccccc2c1)C(=O)O

Key:
Experiment in all cases: NCI tumour cell line growth inhibition, 48 h
M14 melanoma = tested on: M14 melanoma
SF-539 CNS = tested on: SF-539 CNS
HCC-2998 colon = tested on: HCC-2998 colon
MOLT-4 leukemia = tested on: MOLT-4 leukemia
SK-MEL-5 melanoma = tested on: SK-MEL-5 melanoma
OVCAR-5 ovarian = tested on: OVCAR-5 ovarian
T-47D breast = tested on: T-47D breast
786-0 renal = tested on: 786-0 renal
U251 CNS = tested on: U251 CNS
SK-MEL-28 melanoma = tested on: SK-MEL-28 melanoma

Row | Structure (SMILES) | TGI (M14 melanoma) [µM] | GI50 (SF-539 CNS) [µM] | TGI (SF-539 CNS) | GI50 (HCC-2998 colon) [µM] | TGI (HCC-2998 colon) [µM] | GI50 (MOLT-4 leukemia) [µM] | TGI (MOLT-4 leukemia) [µM] | TGI (SK-MEL-5 melanoma) [µM] | TGI (OVCAR-5 ovarian) [µM] | TGI (T-47D breast) [µM] | GI50 (786-0 renal) [µM] | TGI (786-0 renal) | GI50 (U251 CNS) [µM] | TGI (U251 CNS) | GI50 (SK-MEL-28 melanoma) [µM] | TGI (SK-MEL-28 melanoma) [µM] | GI50 (M14 melanoma) [µM] | GI50 (SK-MEL-5 melanoma) [µM] | GI50 (OVCAR-5 ovarian) [µM] | GI50 (T-47D breast) [µM]
1 | CC(NC(=O)C(N)Cc1ccccc1)C(=O)NC(Cc1ccc(O)cc1)C(=O)NC(Cc1c[nH]c2ccccc12)C(=O)NC(CCCCN)C(=O)NC(C(=O)NC(C)C(=O)NC(Cc1ccc2ccccc2c1)C(N)=O)C(C)C (stereo not drawn) (H-FAYWKVA[2Nal]-NH2; configuration not given here) | > 12.5 | 21.8 | > 12.5 µM and 62.4 µM | 29.7 | > 100 | 16.7 | 32 | > 12.5 | > 12.5 | > 12.5 | 24.8 | > 12.5 µM and 65.1 µM | 25.1 | > 12.5 µM and 67 µM | 53.4 | > 100 | – | – | – | –
2 | C=CC1=C(C)C2=NC1=CC1=NC(=C(CC)/C1=C/O)C=C1C=C3C(=O)C(C(=O)OC)C(=C4NC(=C2)C(C)C4CCC(=O)OC/C=C(\C)CCCC(C)CCCC(C)CCCC(C)C)C3=N1 (stereo not drawn) (tested in a mixture with another compound) | > 100 | – | > 100 µM | – | > 100 | – | > 100 | > 100 | > 100 | > 100 | – | > 100 µM | – | > 100 µM | – | > 100 | – | – | – | –
3 | CCOC(=O)C(=Cc1ccc(Br)cc1)C(=O)OCC | 3.68 | 1.72 | 3.13 µM | 1.91 | 3.48 | 2.94 | 20.2 | 3.12 | 6.52 | 6 | 2.01 | 3.85 µM | 1.43 | 2.98 µM | 1.89 | 3.62 | 1.8 | 1.65 | 2.66 | 2.12
4 | O=C1C(Nc2ccccn2)=C(I)C(=O)c2ncccc21 | 2.6 | 1.37 | 2.69 µM | 1.53 | 2.98 | 0.702 | 4.66 | 2.31 | 3.25 | 3.82 | 1.9 | 4.68 µM | 0.591 | 2.07 µM | 1.68 | 3.18 | 1.18 | 1.11 | 1.71 | 1.36
5 | O=C(N/N=C/c1cc2ccccc2c2ccccc12)c1cc(O)c(O)c(O)c1 | 18.2 | 2.17 | 5.8 µM | 8.54 | 22.4 | 3.8 | 18.2 | 10.6 | 25.7 | 7.24 | 2.77 | 7.2 µM | 2.96 | 14 µM | 3.57 | 15.1 | 4.34 | 2.9 | 8.85 | 2.23
6 | C=CC(=O)Nc1cc2c(Nc3ccc(OCc4ccccn4)c(Cl)c3)ncnc2cc1OCCN1CCOCC1 | 19.6 | 2.63 | > 100 µM | 2.2 | 11.1 | 3.02 | > 85.1 | 14.3 | > 100 | > 100 | 1.7 | > 83.3 µM | 4.65 | > 100 µM | 5.11 | 19.3 | 4.18 | 3.8 | 15.6 | < 0.0181
7 | CC(=O)N1c2ccccc2C23CCN4CC5=CCOC(O)C(C5CC42)C13 (stereo not drawn) | > 100 | – | > 100 µM | – | > 100 | – | > 100 | > 100 | > 100 | > 100 | – | > 100 µM | – | > 100 µM | – | > 100 | – | – | – | –
8 | COCCOC(C)C(/C=N/NC(N)=S)=N/NC(N)=S (stereo not drawn) | > 100 | > 100 | > 100 µM | > 100 | > 100 | 0.0558 | > 100 | > 100 | > 100 | > 100 | > 100 | > 100 µM | > 100 | > 100 µM | > 100 | > 100 | 0.0643 | > 100 | > 100 | –
9 | C#C[C@]1(O)CC[C@H]2[C@@H]3CC=C4c5nc(Nc6ccc(OC)cc6OC)sc5CC[C@]4(C)[C@H]3CC[C@@]21C | 3.53 | 0.374 | 1.7 µM | 2.17 | 5.59 | 0.46 | 4.69 | 3.26 | 12.2 | 15.7 | 0.504 | 2.6 µM | 0.77 | 4.09 µM | 0.712 | 2.7 | 1.37 | 1.73 | 2.53 | 2.67
10 | Cc1ccc(NC2=C(Cl)C(=O)c3nc(C)ccc3C2=O)cc1 | 3.22 | 1.67 | 3.11 µM | 1.67 | 3.2 | 2.52 | > 100 | 3.1 | 3.62 | 3.3 | 1.75 | 3.23 µM | 1.31 | 2.75 µM | 1.93 | 3.43 | 1.67 | 1.71 | 1.87 | 1.08
11 | COC(=O)c1c2c(c(C)[n+]([O-])c1C)C(=O)C(NCc1ccc(F)c(Cl)c1)=CC2=O | 3.12 | 1.69 | 3.32 µM | 2.28 | 6.66 | 2.42 | 7.2 | 1.57 | 3.82 | 5.09 | 3.1 | 22.7 µM | 2.53 | 13.8 µM | 3.03 | 13.2 | 1.41 | 0.426 | 1.66 | 1.84
12 | O=[N+]([O-])c1ccc(N(CCO)CCO)c2c1no[n+]2[O-] | 2.76 | 1.26 | 2.77 µM | 1.26 | 3.46 | 1.27 | 5.18 | 2.31 | 10.3 | 5.46 | 1.8 | 4.21 µM | 0.655 | 2.37 µM | 1.98 | 5.66 | 1.22 | 1.09 | 2.78 | 1.36
13 | CN(C)CCCC1(c2ccc(F)cc2)OCc2cc(-c3ccc4cc[nH]c4c3)ccc21 (stereo not drawn) | 3.82 | 1.78 | 3.23 µM | 1.84 | 3.48 | 2.04 | 4.34 | 3.25 | 4.3 | 5.17 | 1.78 | 3.41 µM | – | – | 1.8 | 3.36 | 1.88 | 1.81 | 1.95 | 2.01
